Literature values, collected in patent publication US12016830B2, “Pharmaceutical compositions comprising isotretinoin and processes for preparation and uses thereof” (Acrotech Biopharma Inc., priority 2022, dated 2024).

Details: background statement

oral bioavailability: low oral bioavailability
Compound: CC1=C(/C=C/C(C)=C/C=C/C(C)=C\C(=O)O)C(C)(C)CCC1 [Isotretinoin, 13-cis retinoic acid]
